Patent publication US8192962B2, “Processes for detecting toxic substances” (Daikin Industries, Ltd., priority 2001, dated 2012)

System: Mitochondria-located protein genes
Assay: DNA chip mRNA expression in yeast, mitochondria-located protein genes (Table 2)
Type: cell-based, Saccharomyces cerevisiae S288C
Details: cells incubated two hours with the chemical substance
Outline: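 Ratios compare mRNA levels in stressed and control S. cerevisiae. Each toxicant was applied for two hours to log-phase cultures at 25° C. at a sub-lethal, growth-inhibiting level; fluorescent cDNA (Cy3- or Cy5-dUTP) was hybridized to a genome-wide yeast chip for over 12 h at 65° C.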

## O=[N+]([O-])c1cc[n+]([O-])c2ccccc12 [(5), 4-nitroquinolin-N-oxide]
Yeast gene YAL039C
  The level of expressed mRNA in the presence of chemical substance/The level of expressed mRNA in the absence of chemical substance: 1.1
Yeast gene YBL022C
  The level of expressed mRNA in the presence of chemical substance/The level of expressed mRNA in the absence of chemical substance: 1.2
Yeast gene YBL030C
  The level of expressed mRNA in the presence of chemical substance/The level of expressed mRNA in the absence of chemical substance: 0.7
Yeast gene YBL038W
  The level of expressed mRNA in the presence of chemical substance/The level of expressed mRNA in the absence of chemical substance: 0.9
Yeast gene YBL099W
  The level of expressed mRNA in the presence of chemical substance/The level of expressed mRNA in the absence of chemical substance: 1.0
Yeast gene YBR003W
  The level of expressed mRNA in the presence of chemical substance/The level of expressed mRNA in the absence of chemical substance: 0.7
Yeast gene YBR044C
  The level of expressed mRNA in the presence of chemical substance/The level of expressed mRNA in the absence of chemical substance: 1.4
Yeast gene YBR091C
  The level of expressed mRNA in the presence of chemical substance/The level of expressed mRNA in the absence of chemical substance: 1.1
Yeast gene YBR122C
  The level of expressed mRNA in the presence of chemical substance/The level of expressed mRNA in the absence of chemical substance: 1.5
Yeast gene YBR185C
  The level of expressed mRNA in the presence of chemical substance/The level of expressed mRNA in the absence of chemical substance: 0.8
Yeast gene YBR221C
  The level of expressed mRNA in the presence of chemical substance/The level of expressed mRNA in the absence of chemical substance: 1.3
Yeast gene YBR251W
  The level of expressed mRNA in the presence of chemical substance/The level of expressed mRNA in the absence of chemical substance: 1.3
Yeast gene YBR282W
  The level of expressed mRNA in the presence of chemical substance/The level of expressed mRNA in the absence of chemical substance: 1.0
Yeast gene YCL057W
  The level of expressed mRNA in the presence of chemical substance/The level of expressed mRNA in the absence of chemical substance: 1.1
Yeast gene YCR046C
  The level of expressed mRNA in the presence of chemical substance/The level of expressed mRNA in the absence of chemical substance: 1.0
Yeast gene YCR083W
  The level of expressed mRNA in the presence of chemical substance/The level of expressed mRNA in the absence of chemical substance: 1.6
Yeast gene YDL067C
  The level of expressed mRNA in the presence of chemical substance/The level of expressed mRNA in the absence of chemical substance: 2.0
Yeast gene YDL181W
  The level of expressed mRNA in the presence of chemical substance/The level of expressed mRNA in the absence of chemical substance: 1.7
Yeast gene YDL198C
  The level of expressed mRNA in the presence of chemical substance/The level of expressed mRNA in the absence of chemical substance: 0.7
Yeast gene YDR079W
  The level of expressed mRNA in the presence of chemical substance/The level of expressed mRNA in the absence of chemical substance: 1.2
Yeast gene YDR178W
  The level of expressed mRNA in the presence of chemical substance/The level of expressed mRNA in the absence of chemical substance: 0.9
Yeast gene YDR231C
  The level of expressed mRNA in the presence of chemical substance/The level of expressed mRNA in the absence of chemical substance: 1.1
Yeast gene YDR258C
  The level of expressed mRNA in the presence of chemical substance/The level of expressed mRNA in the absence of chemical substance: 1.3
Yeast gene YDR298C
  The level of expressed mRNA in the presence of chemical substance/The level of expressed mRNA in the absence of chemical substance: 1.3
Yeast gene YDR347W
  The level of expressed mRNA in the presence of chemical substance/The level of expressed mRNA in the absence of chemical substance: 0.8
Yeast gene YDR377W
  The level of expressed mRNA in the presence of chemical substance/The level of expressed mRNA in the absence of chemical substance: 1.9
Yeast gene YDR529C
  The level of expressed mRNA in the presence of chemical substance/The level of expressed mRNA in the absence of chemical substance: 1.2
Yeast gene YEL024W
  The level of expressed mRNA in the presence of chemical substance/The level of expressed mRNA in the absence of chemical substance: 1.3
Yeast gene YEL039C
  The level of expressed mRNA in the presence of chemical substance/The level of expressed mRNA in the absence of chemical substance: 0.9
Yeast gene YER178W
  The level of expressed mRNA in the presence of chemical substance/The level of expressed mRNA in the absence of chemical substance: 0.7
Yeast gene YFL016C
  The level of expressed mRNA in the presence of chemical substance/The level of expressed mRNA in the absence of chemical substance: 1.3
Yeast gene YGL018C
  The level of expressed mRNA in the presence of chemical substance/The level of expressed mRNA in the absence of chemical substance: 1.1
Yeast gene YGL187C
  The level of expressed mRNA in the presence of chemical substance/The level of expressed mRNA in the absence of chemical substance: 1.3
Yeast gene YGL191W
  The level of expressed mRNA in the presence of chemical substance/The level of expressed mRNA in the absence of chemical substance: 0.9
Yeast gene YGR008C
  The level of expressed mRNA in the presence of chemical substance/The level of expressed mRNA in the absence of chemical substance: 0.9
Yeast gene YGR028W
  The level of expressed mRNA in the presence of chemical substance/The level of expressed mRNA in the absence of chemical substance: 0.9
Yeast gene YGR062C
  The level of expressed mRNA in the presence of chemical substance/The level of expressed mRNA in the absence of chemical substance: 0.7
Yeast gene YGR076C
  The level of expressed mRNA in the presence of chemical substance/The level of expressed mRNA in the absence of chemical substance: 0.9
Yeast gene YGR082W
  The level of expressed mRNA in the presence of chemical substance/The level of expressed mRNA in the absence of chemical substance: 0.9
Yeast gene YGR174C
  The level of expressed mRNA in the presence of chemical substance/The level of expressed mRNA in the absence of chemical substance: 1.0
Yeast gene YGR244C
  The level of expressed mRNA in the presence of chemical substance/The level of expressed mRNA in the absence of chemical substance: 0.8
Yeast gene YHR008C
  The level of expressed mRNA in the presence of chemical substance/The level of expressed mRNA in the absence of chemical substance: 0.6
Yeast gene YIL155C
  The level of expressed mRNA in the presence of chemical substance/The level of expressed mRNA in the absence of chemical substance: 1.3
Yeast gene YJL096W
  The level of expressed mRNA in the presence of chemical substance/The level of expressed mRNA in the absence of chemical substance: 1.9
Yeast gene YJL102W
  The level of expressed mRNA in the presence of chemical substance/The level of expressed mRNA in the absence of chemical substance: 1.3
Yeast gene YJL133W
  The level of expressed mRNA in the presence of chemical substance/The level of expressed mRNA in the absence of chemical substance: 0.9
Yeast gene YJL166W
  The level of expressed mRNA in the presence of chemical substance/The level of expressed mRNA in the absence of chemical substance: 1.6
Yeast gene YJL180C
  The level of expressed mRNA in the presence of chemical substance/The level of expressed mRNA in the absence of chemical substance: 1.5
Yeast gene YJR045C
  The level of expressed mRNA in the presence of chemical substance/The level of expressed mRNA in the absence of chemical substance: 0.5
Yeast gene YJR077C
  The level of expressed mRNA in the presence of chemical substance/The level of expressed mRNA in the absence of chemical substance: 0.9
